One may read the IC50 as the concentration needed to halve the response being measured. By MIC is commonly meant the least concentration at which growth counts as inhibited. Low values mean inhibition by little substance, high ones a need for much substance.

Each structure is given as a SMILES string. Values after ≈ are worked out from the molar mass of the structure shown.

Data set [1] is described as follows: Displacement of methyl green from DNA (unknown origin) incubated in dark for 24 hrs.
Another data set has as its system Staphylococcus aureus. The data set is described as follows: Antibacterial activity against Staphylococcus aureus ATCC 29213 after 24 hrs by two-fold serial dilution method. The following applies: ATCC 29213, 24 h. The data set is classed as functional.
A further data set concerns Bacillus cereus. The data set is described as follows: Antibacterial activity against Bacillus cereus UW 85 after 24 hrs by two-fold serial dilution method. The format is functional. The conditions noted are these: UW 85, 24 h.
The test system of a further data set is Escherichia coli. The data set is described as follows: Antibacterial activity against Escherichia coli ATCC 12435 after 24 hrs by two-fold serial dilution method. The data set is classed as functional. The conditions noted are these: ATCC 12435, 24 h.
In a further data set the test system is Pseudomonas aeruginosa. The data set is described as follows: Antibacterial activity against Pseudomonas aeruginosa PAO1 after 24 hrs by two-fold serial dilution method. The format is functional. The conditions noted are these: PAO1, 24 h.
Another data set relates to Candida albicans. The data set is described as follows: Antifungal activity against Candida albicans after 48 hrs by two-fold serial dilution method. The data set is classed as functional.
A further data set relates to Aspergillus fumigatus. The data set is described as follows: Antifungal activity against Aspergillus fumigatus 293 after 48 hrs by two-fold serial dilution method. The conditions noted are these: Aspergillus fumigatus, 293, 48 h. The format is functional.
For a further data set, the system named is Aspergillus flavus. The data set is described as follows: Antifungal activity against Aspergillus flavus 3375 after 48 hrs by two-fold serial dilution method. The data set is classed as functional. The conditions noted are these: Aspergillus flavus, 3375, 48 h.
Data set [2] deals with Chromobacterium violaceum. The data set is described as follows: Inhibition of quorum sensing system in Chromobacterium violaceum ATCC 12472 assessed as diameter of violacein pigment inhibition at 5 mg/ml after 48 hrs.
The subject of the next data set is HepG2. The data set is described as follows: Antitumor activity against human HepG2 cells assessed as inhibition of cell proliferation after 48 hrs by MTT assay. The format is functional, cell-based. The following applies: HepG2, 48 h. Background: Formazan colour is commonly taken as a measure of viable cells.
Another data set has as its system MCF7. The data set is described as follows: Antitumor activity against human MCF7 cells assessed as inhibition of cell proliferation after 48 hrs by MTT assay. The conditions noted are these: MCF7, 48 h. The format is functional, cell-based.
In a further data set the test system is HeLa. The data set is described as follows: Antitumor activity against human HeLa cells assessed as inhibition of cell proliferation after 48 hrs by MTT assay. The format is functional, cell-based.
The test system of data set [3] is Ehrlich. The data set is described as follows: Antitumor activity against mouse EAC cells allografted in Swiss mouse assessed as mean survival time at 0.5 mg/mouse administered for 9 days (reference value: 18 day). The data set is classed as functional.
The test system of data set [4] is Ehrlich. The data set is described as follows: Antitumor activity against mouse EAC cells allografted in Swiss mouse assessed as increase in life span at 0.5 mg/mouse administered for 9 days relative to control. The data set is classed as functional.
In data set [5] the test system is Ehrlich. The data set is described as follows: Antitumor activity against mouse EAC cells allografted in Swiss mouse assessed as tumor volume at 0.5 mg/mouse administered for 9 days (reference value: 10.15 mL). The format is functional.
For data set [6], the system named is Ehrlich. The data set is described as follows: Antitumor activity against mouse EAC cells allografted in Swiss mouse assessed as viable tumor cell count at 0.5 mg/mouse administered for 9 days (reference value: 77.41 10^6/ml). The data set is classed as functional.
The subject of data set [7] is Mus musculus. The data set is described as follows: Toxicity in Swiss albino mouse implanted with mouse EAC cells assessed as hemoglobin level at 0.5 mg/mouse administered for 9 days (reference value: 7.05 g/dl). The format is organism-based. The conditions noted are these: in vivo, 216 h.
The subject of data set [8] is Mus musculus. The data set is described as follows: Toxicity in Swiss albino mouse implanted with mouse EAC cells assessed as RBC count at 0.5 mg/mouse administered for 9 days (reference value: 3.59 10^6/mm3). The conditions noted are these: in vivo, 216 h. The format is organism-based.
Data set [9] relates to Mus musculus. The data set is described as follows: Toxicity in Swiss albino mouse implanted with mouse EAC cells assessed as WBC count at 0.5 mg/mouse administered for 9 days (reference value: 20.53 10^3/mm3). The data set is classed as organism-based. The following applies: in vivo, 216 h.
The next data set deals with WI-38. The data set is described as follows: Cytotoxicity against human W138 cells after 48 hrs by MTT assay. The format is cell-based. The conditions noted are these: WI-38, 48 h.
Another data set deals with WISH. The data set is described as follows: Cytotoxicity against human WISH cells after 48 hrs by MTT assay. The format is cell-based.

Regarding `CCOC(=O)C1=C(N/C=N/c2cccnc2Cl)Nc2[nH]nc(C)c2C1c1ccc(N(C)C)cc1` (stereo not given), the IC50 in data set [1] came to 30.2 µM; in the data set on HepG2 it was 4.89 µM; with MCF7, 4.18 µM; with HeLa (read-out: IC50), 4.63 µM; in the data set on WI-38, 74.5 µM; in the data set with WISH, 60.1 µM. Moreover, the MIC in the data set with Staphylococcus aureus amounted to 65.1 µM; against Bacillus cereus, 65.1 µM; against Escherichia coli, 65.1 µM (≈ 31.2 µg/mL); with Pseudomonas aeruginosa, 65.1 µM; in the data set with Candida albicans, 130 µM; with Aspergillus fumigatus, 521 µM. Also, 521 µM was the least that counted as inhibitory in the data set on Aspergillus flavus (MIC). For the same molecule, in data set [2], the diameter of the inhibition zone (DIZ) is less than 2 mm. In addition, the MSD in the data set on Ehrlich [3] came out at 59 days. The Activity in the data set with Ehrlich [4] turned out to be 227.8%; in the data set on Ehrlich [5], 1.25 mL; in the data set with Ehrlich [6] it was 21.8 ×10⁶ /ml; in the data set with Mus musculus [7] it was 13.85 g/dL; in the data set with Mus musculus [8] it was 5.78 ×10⁶ /mm3; with Mus musculus [9], 8.14 ×10³ /mm3.

As for `CCOC(=O)C1=C(N/C=N/c2ncc(-c3ccccc3)s2)Nc2[nH]nc(C)c2C1c1ccc(N(C)C)cc1` (stereo not given), the IC50 in data set [1] came out at 74.2 µM; in the data set on HepG2 it was 9.79 µM; in the data set with MCF7 it was 10.1 µM; in the data set on HeLa (read-out: IC50), 15.4 µM; with WI-38, 33.5 µM; in the data set with WISH it was 29.5 µM. In addition, the MIC with Staphylococcus aureus is 59.2 µM; against Bacillus cereus, 59.2 µM; in the data set on Escherichia coli, 474 µM (≈ 250 µg/mL); against Pseudomonas aeruginosa it was 474 µM; in the data set on Candida albicans it was 1900 µM; with Aspergillus fumigatus, 3790 µM. The same molecule yielded an MIC against Aspergillus flavus of 3790 µM. For the same molecule, the diameter of the inhibition zone (DIZ) in data set [2] was 3 mm. Moreover, in the data set on Ehrlich [3], the MSD was found to be 34 days. For the same molecule, the Activity with Ehrlich [4] worked out at 88.9%; in the data set on Ehrlich [5], 3.8 mL; in the data set with Ehrlich [6], 48.56 ×10⁶ /ml; with Mus musculus [7] it was 11.9 g/dL; in the data set with Mus musculus [8] it was 4.85 ×10⁶ /mm3; in the data set with Mus musculus [9], 11.83 ×10³ /mm3.

As for `CCOC(=O)C1=C(NN=C(C(C)=O)C(C)=O)Nc2[nH]nc(C)c2C1c1ccc(N(C)C)cc1` (stereo not given), the IC50 turned out to be 35.5 µM in data set [1]; 8.48 µM in the data set on HepG2; 9.74 µM in the data set with MCF7; 17 µM in the data set on HeLa (read-out: IC50); 61.4 µM in the data set on WI-38; 58.7 µM in the data set on WISH. The MIC against Staphylococcus aureus turned out to be 2210 µM; with Bacillus cereus, 552 µM; in the data set with Escherichia coli, 552 µM (≈ 250 µg/mL); with Pseudomonas aeruginosa, 552 µM; against Candida albicans, 2210 µM; in the data set with Aspergillus fumigatus, 4420 µM. In the data set on Aspergillus flavus, this molecule registered an MIC of 1100 µM. In [2], the diameter of the inhibition zone (DIZ) was less than 2 mm. Moreover, in the data set with Ehrlich [3], the MSD was 49 days. Further, the Activity in the data set with Ehrlich [4] was determined as 172.2%; in the data set on Ehrlich [5], 1.9 mL; with Ehrlich [6], 27.53 ×10⁶ /ml; with Mus musculus [7], 13.45 g/dL; in the data set on Mus musculus [8], 5.65 ×10⁶ /mm3; with Mus musculus [9] it was 8.84 ×10³ /mm3.

As for `CCOC(=O)C1=C(NN=C(C#N)C#N)Nc2[nH]nc(C)c2C1c1ccc(N(C)C)cc1` (stereo not given), the IC50 in data set [1] was 44 µM; in the data set on HepG2, 13.7 µM; with MCF7 it was 12.1 µM; in the data set with HeLa (read-out: IC50) it was 15.2 µM; in the data set with WI-38 it was 42.7 µM; in the data set with WISH, 45.2 µM. Besides, the MIC against Staphylococcus aureus worked out at 4780 µM; against Bacillus cereus, 2390 µM; in the data set on Escherichia coli, 2390 µM (≈ 1000 µg/mL); against Pseudomonas aeruginosa, 1190 µM; against Candida albicans, 2390 µM; in the data set on Aspergillus fumigatus, 2390 µM. In addition, 2390 µM was the least that counted as inhibitory against Aspergillus flavus (MIC). Further, in data set [2], the diameter of the inhibition zone (DIZ) was less than 2 mm. Besides, the MSD with Ehrlich [3] stood at 39 days. Also, the Activity in the data set with Ehrlich [4] is 116.7%; with Ehrlich [5], 2.25 mL; with Ehrlich [6], 30.93 ×10⁶ /ml; in the data set on Mus musculus [7], 12.65 g/dL; in the data set with Mus musculus [8], 5.14 ×10⁶ /mm3; with Mus musculus [9], 10.69 ×10³ /mm3.

For `COc1cccc2c1C(=O)c1c(O)c3c(c(O)c1C2=O)C[C@@](O)(C(=O)CO)C[C@@H]3O[C@H]1C[C@H](N)[C@H](O)[C@H](C)O1` [DOXORUBICIN], the IC50 in data set [1] worked out at 31.3 µM; in the data set on HepG2, 4.3 µM; with HeLa, 5.17 µM. For the same molecule, the MSD with Ehrlich [3] came out at 62 days. For the same molecule, the Activity with Ehrlich [4] is 244.4%; in the data set with Ehrlich [5], 1 mL; in the data set with Ehrlich [6], 16.36 ×10⁶ /ml; in the data set with Mus musculus [7] it was 12.75 g/dL; in the data set with Mus musculus [8], 5.32 ×10⁶ /mm3; in the data set on Mus musculus [9], 8.96 ×10³ /mm3.

In the case of `CCOC(=O)C1=C(N)Nc2[nH]nc(C)c2C1c1ccc(N(C)C)cc1` (stereo not given), the IC50 stood at 32.4 µM in [1]; 4.24 µM in the data set on HepG2; 5.06 µM with MCF7; 6.22 µM with HeLa (read-out: IC50); 84 µM in the data set with WI-38; 94.6 µM in the data set on WISH. Besides, the MIC in the data set with Staphylococcus aureus is greater than 200 µg/mL; against Bacillus cereus, greater than 200 µg/mL; against Escherichia coli it was 683 µM (≈ 233 µg/mL); with Pseudomonas aeruginosa, greater than 200 µg/mL; in the data set with Candida albicans it was greater than 200 µg/mL; against Aspergillus fumigatus, greater than 200 µg/mL. Also, in the data set on Aspergillus flavus, the MIC is greater than 200 µg/mL. Besides, the diameter of the inhibition zone (DIZ) in [2] was less than 2 mm. The MSD with Ehrlich [3] is 65 days. Moreover, the Activity in the data set on Ehrlich [4] was determined as 261.1%; with Ehrlich [5], 1.05 mL; in the data set on Ehrlich [6], 18.64 ×10⁶ /ml; in the data set on Mus musculus [7] it was 14.15 g/dL; with Mus musculus [8] it was 6.26 ×10⁶ /mm3; in the data set on Mus musculus [9], 6.38 ×10³ /mm3.
